According to patent US12297218B2, “Complex comprising a PSMA-targeting compound linked to a lead or thorium radionuclide” (Sciencons AS, priority 2017, dated 2025):

What was measured:
[1] = system: C4-2 PSMA-positive xenografts; assay: Biodistribution of radiolabelled ligands after intravenous injection in nude mice with C4-2 xenografts; conditions: for Tumor-to-kidney ratio / Kidney uptake / Tumor uptake: average; for Tumor-to-kidney ratio: 1-hour point after administration; for Kidney uptake / Tumor uptake: 4 hours after injection
Experimental: Each group usually consisted of three mice. […] Approximately 16 kBq of ^224Ra/^212Pb was injected in each animal, i.e., approximately 0.2 nmol of ligand per mouse. Animals were given anaesthesia and sacrificed by cervical dislocation followed by dissection and harvesting of tissue-, blood- and urine samples. The samples were weighed and counted on a gamma counter.
Three mice in each group. […] The molar concentration was the same for both products, i.e., 12.5 nmol per MBq. Approximately 16 kBq of ^224Ra/^212Pb was injected in each animal, i.e., approximately 0.2 nmol of ligand per mouse. Animals were given anaesthesia and sacrificed by cervical dislocation followed by dissection and harvesting of tissue-, blood- and urine samples. The samples were weighed and counted on a gamma counter.
Methods: Tumor and kidney uptake of ^212Pb-labeled p-SCN-Bn-TCMC-PSMA ligand 1 and ^177Lu-labeled PSMA-617 was compared at 1 hours and 4 hours after administration of the products by intravenous injection into nude mice with C4-2 xenografts as described in Example 9.

[2] = system: C4-2 PSMA positive human prostate cells; assay: Comparative therapy experiment in nude mice with C4-2 xenografts; format: in vivo; conditions: for Median survival: 52 MBq ^177Lu-PSMA-617 or 320 kBq ^212Pb-p-SCN-Bn-TCMC-PSMA ligand 1
Experimental: Male nude mice were inoculated in the flanks with C4-2 PSMA positive human prostate cells and 2 weeks later when tumors were 5-7 mm in diameters. Groups of 8 animals each received saline, 52 MBq of ^177Lu-PSMA-617 or 320 kBq of ^212Pb-p-SCN-Bn-TCMC-PSMA ligand 1. Animals were sacrificed when tumor size reached 20 mm due to animal welfare requirements. […] For ^212Pb the effective half-life was assumed to be 10.6 h, 10% of injected dose per gram decays in tumor and 100% of radiation in a tumor is absorbed in the tumor, 100% retention of ^212Pb and daughters in the tumors and 8 MeV radiation energy per decay. The tumor dosimetry for the injected activities gave on average 35.9 Gy to tumors for ^177Lu-PSMA-617 and 2.06 Gy to tumors for ^212Pb-p-SCN-Bn-TCMC-PSMA ligand 1 groups respectively.

PC3 PIP model = conditions: typical, mouse xenografts, other researchers; cited from earlier work
PSMA-positive xenografts = assay: Biodistribution of single targeting solution (purified ^212Pb-p-SCN-Bn-TCMC-PSMA ligand 1) in mice with PSMA-positive xenografts; format: in vivo
Experimental: Each group usually consisted of three mice. The ^212Pb labelling was above 92% for the products.
Using a ^212Pb/^224Ra solution for reaction with p-SCN-Bn-TCMC-PSMA ligand 1 as described, purified ^212Pb-p-SCN-Bn-TCMC-PSMA ligand 1 was purified using a Sephadex G-10 gel filtration column and about 30 kBq and 300 ng of the purified radioligand product was injected per animal. […] The tumor-to-tissue ratios (Table 4) indicates suitability for radioligand targeting with ^212Pb.

C4-2 cells = assay: Prostate cancer cell binding of ligands labeled with ^212Pb; design: species or system human
Experimental: the cell binding fractions measured by adding about 1 ng of radioligand to 0.2 ml of C4-2 cells (5×10^7 cells per ml) in a 5 ml test tube and incubate for 1 h before measuring applied activity, wash cells 3 times with 0.5 ml 0.5% bovine serum albumin in DPBS and thereafter recount the washed cell pellet. […] Nonspecific binding was measured by blocking the cells with excess 10 μg/ml of unlabelled ligand before adding radioligand.

O=C([O-])CN1CCN(CC(=O)[O-])CCN(CC(=O)NCC2CCC(C(=O)N[C@@H](Cc3ccc4ccccc4c3)C(=O)NCCCC[C@H](NC(=O)N[C@@H](CCC(=O)O)C(=O)O)C(=O)O)CC2)CCN(CC(=O)[O-])CC1.[177Lu+3] (stereo partly shown) [^177Lu-PSMA-617, reference compound]
Tumor-to-kidney ratio [1]: 0.17
Kidney uptake [1]: 17.4 % ID/g
Tumor uptake [1]: 13.6 % ID/g
PSMA-ligand uptake in the xenograft model used ([1]; typical, mouse xenografts): 10-15 % ID/g
Median survival [2]: 20 days
PSMA-ligand uptake in PC3 PIP model (PC3 PIP model): 30-40 % ID/g

NC(=O)CN1CCN(CC(N)=O)CCN(CC(N)=O)C(Cc2ccc(NC(=S)NCC3CCC(C(=O)NC(Cc4ccc5ccccc5c4)C(=O)NCCCCC(NC(=O)NC(CCC(=O)O)C(=O)O)C(=O)O)CC3)cc2)CN(CC(N)=O)CC1.[212Pb+2] (stereo not shown) [^212Pb-p-SCN-Bn-TCMC-PSMA ligand 1]
^212Pb-p-SCN-Bn-TCMC-PSMA ligand 1 to PSMA-617 ratio, blood ([1]; 4 h after injection): 1.21
^212Pb-p-SCN-Bn-TCMC-PSMA ligand 1 to PSMA-617 ratio, kidneys ([1]; 4 h after injection): 0.20
^212Pb-p-SCN-Bn-TCMC-PSMA ligand 1 to PSMA-617 ratio, liver ([1]; 4 h after injection): 2.67
^212Pb-p-SCN-Bn-TCMC-PSMA ligand 1 to PSMA-617 ratio, spleen ([1]; 4 h after injection): 0.71
^212Pb-p-SCN-Bn-TCMC-PSMA ligand 1 to PSMA-617 ratio, tumor ([1]; 4 h after injection, ^224Ra/^212Pb solution): 1.35
Tumor-to-kidney ratio [1]: 0.40
Kidney uptake [1]: 8.1 % ID/g
Tumor uptake [1]: 13.9 % ID/g
Tumor to tissue ratio, Tumor/Femur (PSMA-positive xenografts; 1 h): 30.4
Tumor to tissue ratio, Tumor/blood (PSMA-positive xenografts; 1 h): 14.9
Tumor to tissue ratio, Tumor/kidneys (PSMA-positive xenografts; 1 h): 0.41
Tumor to tissue ratio, Tumor/muscle (PSMA-positive xenografts; 1 h): 42.6
Tumor to tissue ratio, Tumor/Femur (PSMA-positive xenografts; 2 h): 39.7
Tumor to tissue ratio, Tumor/blood (PSMA-positive xenografts; 2 h): 29.4
Tumor to tissue ratio, Tumor/kidneys (PSMA-positive xenografts; 2 h): 0.62
Tumor to tissue ratio, Tumor/muscle (PSMA-positive xenografts; 2 h): 72.1
Tumor to tissue ratio, Tumor/Femur (PSMA-positive xenografts; 4 h): 24.8
Tumor to tissue ratio, Tumor/blood (PSMA-positive xenografts; 4 h): 30.7
Tumor to tissue ratio, Tumor/kidneys (PSMA-positive xenografts; 4 h): 1.54
Tumor to tissue ratio, Tumor/muscle (PSMA-positive xenografts; 4 h): 61.5
Tumor to tissue ratio, Tumor/Femur (PSMA-positive xenografts; 8 h): 19.8
Tumor to tissue ratio, Tumor/blood (PSMA-positive xenografts; 8 h): 112.7
Tumor to tissue ratio, Tumor/kidneys (PSMA-positive xenografts; 8 h): 3.60
Tumor to tissue ratio, Tumor/muscle (PSMA-positive xenografts; 8 h): 366.2
Biodistribution, Bladder (PSMA-positive xenografts; Bladder, 8 h): 0.26 % ID/g
Biodistribution, Blood (PSMA-positive xenografts; 2 h): 0.54 % ID/g
Biodistribution, Blood (PSMA-positive xenografts; 4 h): 0.46 % ID/g
Biodistribution, Blood (PSMA-positive xenografts; 8 h): 0.13 % ID/g
Biodistribution, Brain (PSMA-positive xenografts; 1 h): 0.61 % ID/g
Biodistribution, Brain (PSMA-positive xenografts; 2 h): 0.04 % ID/g
Biodistribution, Brain (PSMA-positive xenografts; 4 h): 0.07 % ID/g
Biodistribution, Brain (PSMA-positive xenografts; 8 h): 0.02 % ID/g
Biodistribution, Femur (PSMA-positive xenografts; 1 h): 0.87 % ID/g
Biodistribution, Femur (PSMA-positive xenografts; 2 h): 0.40 % ID/g
Biodistribution, Femur (PSMA-positive xenografts; 4 h): 0.57 % ID/g
Biodistribution, Femur (PSMA-positive xenografts; 8 h): 0.74 % ID/g
Biodistribution, Heart (PSMA-positive xenografts; 1 h): 0.78 % ID/g
Biodistribution, Heart (PSMA-positive xenografts; 2 h): 0.20 % ID/g
Biodistribution, Heart (PSMA-positive xenografts; 4 h): 0.52 % ID/g
Biodistribution, Heart (PSMA-positive xenografts; 8 h): 0.09 % ID/g
Biodistribution, Large intestine (PSMA-positive xenografts; 1 h): 0.25 % ID/g
Biodistribution, Large intestine (PSMA-positive xenografts; 2 h): 0.39 % ID/g
Biodistribution, Large intestine (PSMA-positive xenografts; 4 h): 0.18 % ID/g
Biodistribution, Large intestine (PSMA-positive xenografts; 8 h): 0.17 % ID/g
Biodistribution, Lungs (PSMA-positive xenografts; 2 h): 0.40 % ID/g
Biodistribution, Lungs (PSMA-positive xenografts; 4 h): 0.75 % ID/g
Biodistribution, Lungs (PSMA-positive xenografts; 8 h): 0.17 % ID/g
Biodistribution, Muscle (PSMA-positive xenografts; 1 h): 0.62 % ID/g
Biodistribution, Muscle (PSMA-positive xenografts; 2 h): 0.22 % ID/g
Biodistribution, Muscle (PSMA-positive xenografts; 4 h): 0.23 % ID/g
Biodistribution, Muscle (PSMA-positive xenografts; 8 h): 0.04 % ID/g
Biodistribution, Prostate (PSMA-positive xenografts; Prostate, 2 h): 3.80 % ID/g
Biodistribution, Salivary gland (PSMA-positive xenografts; 1 h): 0.72 % ID/g
Biodistribution, Salivary gland (PSMA-positive xenografts; 2 h): 0.32 % ID/g
Biodistribution, Salivary gland (PSMA-positive xenografts; 4 h): 0.34 % ID/g
Biodistribution, Salivary gland (PSMA-positive xenografts; 8 h): 0.15 % ID/g
Biodistribution, Skin (PSMA-positive xenografts; 1 h): 1.70 % ID/g
Biodistribution, Skin (PSMA-positive xenografts; 2 h): 0.47 % ID/g
Biodistribution, Skin (PSMA-positive xenografts; 4 h): 0.42 % ID/g
Biodistribution, Skin (PSMA-positive xenografts; 8 h): 0.23 % ID/g
Biodistribution, Skull (PSMA-positive xenografts; 1 h): 0.77 % ID/g
Biodistribution, Skull (PSMA-positive xenografts; 2 h): 0.38 % ID/g
Biodistribution, Skull (PSMA-positive xenografts; 4 h): 0.37 % ID/g
Biodistribution, Skull (PSMA-positive xenografts; 8 h): 0.63 % ID/g
Biodistribution, Small intestine (PSMA-positive xenografts; 1 h): 0.34 % ID/g
Biodistribution, Small intestine (PSMA-positive xenografts; 2 h): 0.23 % ID/g
Biodistribution, Small intestine (PSMA-positive xenografts; 4 h): 0.30 % ID/g
Biodistribution, Small intestine (PSMA-positive xenografts; 8 h): 0.08 % ID/g
Biodistribution, Spleen (PSMA-positive xenografts; 2 h): 0.44 % ID/g
Biodistribution, Spleen (PSMA-positive xenografts; 4 h): 0.54 % ID/g
Biodistribution, Spleen (PSMA-positive xenografts; 8 h): 0.36 % ID/g
Biodistribution, Stomach (PSMA-positive xenografts; 1 h): 0.16 % ID/g
Biodistribution, Stomach (PSMA-positive xenografts; 2 h): 0.22 % ID/g
Biodistribution, Stomach (PSMA-positive xenografts; 4 h): 0.10 % ID/g
Biodistribution, Stomach (PSMA-positive xenografts; 8 h): 0.09 % ID/g
Biodistribution, Testes (PSMA-positive xenografts; 2 h): 0.56 % ID/g
Biodistribution, Testes (PSMA-positive xenografts; 4 h): 0.38 % ID/g
Biodistribution, Testes (PSMA-positive xenografts; 8 h): 0.12 % ID/g
Median survival [2]: > 30 days
Radiobiological effectiveness (RBE) vs ^177Lu-PSMA-617 ([2]; C4-2 xenografts): at least 17
Survival at day 30 after treatment ([2]; groups of 8): 75%

NC(=O)CN1CCN(CC(N)=O)CCN(CC(N)=O)C(Cc2ccc(NC(=S)NC[C@H]3CC[C@H](C(=O)N[C@@H](Cc4ccc5ccccc5c4)C(=O)NCCCC[C@H](NC(=O)N[C@@H](CCC(=O)O)C(=O)O)C(=O)O)CC3)cc2)CN(CC(N)=O)CC1 (stereo partly drawn) [p-SCN-Bn-TCMC-PSMA ligand 1, (((1S)-1-carboxy-5-((2S)-3-(naphthalen-2-yl)-2-((1r,4S)-4-((3-(4-((1,4,7,10-tetrakis(2-amino-2-oxoethyl)-1,4,7,10-tetraazacyclododecan-2-yl)methyl)phenyl)thioureido)methyl)cyclohexane-1-carboxamido)propanamido)pentyl)carbamoyl)-L-glutamic acid; trifloroacetic acid (1:4)]
Difference in cell-binding between radiolabelled p-SCN-Bn-TCMC-PSMA ligand 1 and PSMA-617 (C4-2 cells): No significant difference
